Data taken from patent US6784198B1, “Arylmethyl-carbonylamino-thiazole derivatives and their use as antitumor agents” (Pharmacia Italia S.p.A., priority 1999, dated 2004).

SMILES: CC(=O)Nc1nc(CC(=O)Nc2ncc(C(C)C)s2)cs1 [2-[2-(acetylamino)-1,3-thiazol-4-yl]-N-(5-isopropyl-1,3-thiazol-2-yl)acetamide]
- melting point: 174 to 176 °C
